Measurements as given in US12156523B2 (priority 2017, dated 2024).

What was measured:
Assay type in all cases: in vivo
rice (cultivar: Jikkoku) = assay: Barrier to growth of rice (phytotoxicity, Example 18); settings: untreated plant length set as 100; 0.2 mg/mL acetone solution diluted 10-fold, 0.25 mL per 1 mL of soil; first leaf stage; comparative compounds (Table 38)
Description: The acetone solutions of each example compound and compounds described in the prior art documents shown in the below-mentioned Table 38 (hereinafter, referred to as compounds of Comparative Examples 1 to 5, respectively) were prepared such that the content thereof became 0.2 mg/mL, and then diluted to 10-fold with water to be subjected to conducting test. 0.25 mL of the diluted solution per 1 mL of the soil was made to be absorbed in the soil. Then, rice seeds (cultivar: Jikkoku) subjected to forcing to germination were seeded in the soil to be cultivated in plant cultivation chambers. The plant length of the rice grown to the first leaf stage was measured, and the ratio of the plant length, relative to the untreated plant length set as 100, (hereinafter, referred to as “the ratio of plant length relative to untreated plant length”) was calculated. The presence or absence of the barrier to growth was determined from the calculated ratio.

Pyricularia oryzae [1] = assay: whole plant or invertebrate; settings: soil, read-out: Control value (number of lesions at the second leaf)
Pyricularia oryzae [2] = assay: whole plant or invertebrate; settings: foliar, read-out: Control value (number of lesions at the second leaf)
wheat brown rust = assay: Activity against wheat brown rust (Example 14); settings: wettable powder (Preparation Example 1) diluted 1000-fold, sprayed twice at 1 L/m^2, examined approx. 4 weeks after second spraying
Description: Wettable powders of the example compound 1-135 were prepared in accordance with the below-mentioned Preparation Example 1, followed by diluting the wettable powders to 1000-fold with water to prepare spraying liquids. The prepared spraying liquid was sprayed onto wheat twice at the blooming stage and 10 days prior to the blooming stage at a liquid volume of 1 L/m^2. The lesions on the flag leaf were examined in accordance with the below-mentioned indexes approximately 4 weeks after the second spraying application. The severity was calculated based on the indexes, and the control value was calculated from the obtained severity in accordance with the below-mentioned mathematical formula.
0: No lesions were observed.
1: 1 to 3 lesions were observed.
2: 4 to 10 lesions were observed.
3: 11 to 20 lesions were observed.
4: 21 or more lesions were observed, and the area of lesions was less than half of the leaf surface.
5: 21 or more lesions were confirmed, and the area of lesions was half or more of the leaf surface. Control value=((the severity at untreated plants −the severity at treated plants)/the severity at untreated plants)×100

[3] = test system: cucumber bacterial spot disease; assay: Activity against cucumber bacterial spot disease (Example 17); settings: cucumber cv. Natsusuzumi; wettable powder diluted 6666-fold, 20 mL per pot absorbed in the soil; 28 days after settled planting
Description: Wettable powders of the example compound 1-134 were prepared in accordance with the below-mentioned Preparation Example 1. The wettable powders were diluted to 6666-fold with water, and then 20 mL of the diluted solution per pot was applied to cucumber (cultivar: Natsusuzumi) cultivated to the third leaf stage in pots by making the diluted solution to be absorbed in the soil, and then the cucumber was subjected to settled planting. 28 days after the settled planting, the number of lesions formed at the 11th true leaves to the 20th true leaves were counted. The control value was calculated from the obtained number of lesions in accordance with the below-mentioned mathematical formula. Control value=((the number of lesions at untreated plants −the number of lesions at treated plants)/the number of lesions at untreated plants)×100

SMILES | Ratio of plant length relative to untreated plant length (rice (cultivar: Jikkoku)) | pest or weed control at 10 µg/mL (Pyricularia oryzae [1]) [%] | pest or weed control at 200 ppm (Pyricularia oryzae [2]) [%] | also measured
O=C(COC(=O)c1cc(Cl)nc(Cl)c1)c1ccccc1 [Comparative Example 4] | 64 |  |  | 
O=C(O)c1cc(Cl)nc(Cl)c1 [Comparative Example 1] | 49 |  |  | 
O=C(OCc1ccc(Cl)nc1)c1cc(Cl)nc(Cl)c1 [Comparative Example 5] | 66 |  |  | 
O=C(NCCc1ccccc1)c1cc(Cl)nc(Cl)c1 [Comparative Example 3] | 45 |  |  | 
C#CCOC(=O)c1cc(Cl)nc(Cl)c1 [Comparative Example 2] | 52 |  |  | 
COc1cccc(NC(=O)c2cc(F)nc(F)c2)c1 [Example 1-135] |  | ≥ 80 | ≥ 80 | pest or weed control at 25 ppm (Pyricularia oryzae [2]): ≥ 80%; Control value (severity on the flag leaf) (wheat brown rust): ≥ 50
CC(C)Oc1cccc(NC(=O)c2cc(F)nc(F)c2)c1 [Example 1-134] |  | ≥ 80 | ≥ 80 | pest or weed control at 25 ppm (Pyricularia oryzae [2]): ≥ 80%; Control value (number of lesions at 11th to 20th true leaves) [3]: ≥ 60
Fc1cc(C2=NCCO2)cc(F)n1 [Example 4-4] |  | ≥ 80 | ≥ 80 | 
CC(=O)Oc1ccccc1COC(=O)c1cc(F)nc(F)c1F [Example 1-102] |  | ≥ 80 | ≥ 80 | 
O=C(Nc1ccccc1[N+](=O)[O-])c1cc(F)nc(F)c1 [Example 1-173] |  | ≥ 80 | ≥ 80 | 
O=C(Nc1ccc2c(c1)CCCC2)c1cc(F)nc(F)c1F [Example 1-3] |  | ≥ 80 | ≥ 80 | 
CCCCc1ccc(NC(=O)c2cc(F)nc(F)c2)cc1 [Example 1-180] |  | ≥ 80 | ≥ 80 | 
O=C(NC(=O)c1cc(F)nc(F)c1F)c1ccccc1 [Example 1-93] |  | ≥ 80 | ≥ 80 | 
O=C(Nc1cccc(Cl)c1)c1cc(F)nc(F)c1F [Example 1-32] |  | ≥ 80 | ≥ 80 | 
CC(C)Oc1ccc(NC(=O)c2cc(F)nc(F)c2)cc1 [Example 1-137] |  | ≥ 80 | ≥ 80 | 
